In patent US20230085307A1, “PYRIDAZINONE COMPOUND AND HERBICIDE” (NISSAN CHEMICAL CORPORATION, priority 2019, published 2023):

Columns and labels:
barnyard grass [1] = assay: Test Example 3: herbicidal effect by foliage application, Wagner pot (Table 18, symbol H); type: in vivo, barnyard grass (Echinochloa crus-galli); details: amount of applied herbicide 320 g/ha
Summary of the method: (§1)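 Plants were sown in alluvial soil held under 0.1–0.5 cm standing water and grown 14 days in a greenhouse at 25–30 °C. An emulsifiable formulation, water-diluted to the set dose, was then sprayed onto the foliage, and effects were scored three weeks later using previously defined criteria.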

Chinese sprangletop = assay: Test Example 3: herbicidal effect by foliage application, Wagner pot (Table 18, symbol D); type: in vivo, chinese sprangletop (Leptochloa chinensis); details: amount of applied herbicide 320 g/ha
Summary of the method: as §1

rice flat sedge = assay: Test Example 3: herbicidal effect by foliage application, Wagner pot (Table 18, symbol E); type: in vivo, rice flat sedge (Cyperus iria); details: amount of applied herbicide 320 g/ha
Summary of the method: as §1

southern crabgrass [2] = assay: Test Example 4: herbicidal effect by soil treatment (Table 19, symbol F); type: in vivo, southern crabgrass (Digitaria ciliaris); details: amount of applied herbicide 320 g/ha
Summary of the method: (§2)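 In this soil treatment, the formulated compound reached the seeds only through the soil: seeds were buried about 1.5 cm deep in sterilized diluvial soil, then the diluted emulsion was sprayed over the surface. After three weeks at 25° C. to 30° C. in a greenhouse, effects were graded on criteria from an earlier test.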

green foxtail [3] = assay: Test Example 4: herbicidal effect by soil treatment (Table 19, symbol G); type: in vivo, green foxtail (Setaria viridis); details: amount of applied herbicide 320 g/ha
Summary of the method: as §2

barnyard grass [4] = assay: Test Example 4: herbicidal effect by soil treatment (Table 19, symbol H); type: in vivo, barnyard grass (Echinochloa crus-galli); details: amount of applied herbicide 320 g/ha
Summary of the method: as §2

wild oat [5] = assay: Test Example 4: herbicidal effect by soil treatment (Table 19, symbol I); type: in vivo, wild oat (Avena fatua); details: amount of applied herbicide 320 g/ha
Summary of the method: as §2

blackgrass [6] = assay: Test Example 4: herbicidal effect by soil treatment (Table 19, symbol J); type: in vivo, blackgrass (Alopecurus myosuroides); details: amount of applied herbicide 320 g/ha
Summary of the method: as §2

Italian ryegrass [7] = assay: Test Example 4: herbicidal effect by soil treatment (Table 19, symbol K); type: in vivo, Italian ryegrass (Lolium multiflorum); details: amount of applied herbicide 320 g/ha
Summary of the method: as §2

windgrass = assay: Test Example 4: herbicidal effect by soil treatment (Table 19, symbol L); type: in vivo, windgrass (Apera spica-venti); details: amount of applied herbicide 320 g/ha
Summary of the method: as §2

velvetleaf [8] = assay: Test Example 4: herbicidal effect by soil treatment (Table 19, symbol M); type: in vivo, velvetleaf (Abutilon theophrasti); details: amount of applied herbicide 320 g/ha
Summary of the method: as §2

redroot pigweed [9] = assay: Test Example 4: herbicidal effect by soil treatment (Table 19, symbol N); type: in vivo, redroot pigweed (Amaranthus retroflexus); details: amount of applied herbicide 320 g/ha
Summary of the method: as §2

lambsquarters [10] = assay: Test Example 4: herbicidal effect by soil treatment (Table 19, symbol O); type: in vivo, lambsquarters (Chenopodium album); details: amount of applied herbicide 320 g/ha
Summary of the method: as §2

chickweed [11] = assay: Test Example 4: herbicidal effect by soil treatment (Table 19, symbol P); type: in vivo, common chickweed (Stellaria media); details: amount of applied herbicide 320 g/ha
Summary of the method: as §2

persian speedwell [12] = assay: Test Example 4: herbicidal effect by soil treatment (Table 19, symbol R); type: in vivo, Persian speedwell (Veronica persica); details: amount of applied herbicide 320 g/ha
Summary of the method: as §2

southern crabgrass [13] = assay: Test Example 5: herbicidal effect by foliage application, plastic box (Table 20, symbol F); type: in vivo, southern crabgrass (Digitaria ciliaris); details: foliage application, 320 g/ha, evaluated three weeks after application
Summary of the method: (§3)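 Plants were sown into sterilized diluvial soil under about 1.5 cm cover and kept in a greenhouse at 25° C. to 30° C. Fourteen days on, foliage received an even spray of the diluted emulsion. Herbicidal or crop effect was judged three weeks afterwards.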

green foxtail [14] = assay: Test Example 5: herbicidal effect by foliage application, plastic box (Table 20, symbol G); type: in vivo, green foxtail (Setaria viridis); details: foliage application, 320 g/ha, evaluated three weeks after application
Summary of the method: as §3

barnyard grass [15] = assay: Test Example 5: herbicidal effect by foliage application, plastic box (Table 20, symbol H); type: in vivo, barnyard grass (Echinochloa crus-galli); details: foliage application, 320 g/ha, evaluated three weeks after application
Summary of the method: as §3

wild oat [16] = assay: Test Example 5: herbicidal effect by foliage application, plastic box (Table 20, symbol I); type: in vivo, wild oat (Avena fatua); details: foliage application, 320 g/ha, evaluated three weeks after application
Summary of the method: as §3

blackgrass [17] = assay: Test Example 5: herbicidal effect by foliage application, plastic box (Table 20, symbol J); type: in vivo, blackgrass (Alopecurus myosuroides); details: foliage application, 320 g/ha, evaluated three weeks after application
Summary of the method: as §3

Italian ryegrass [18] = assay: Test Example 5: herbicidal effect by foliage application, plastic box (Table 20, symbol K); type: in vivo, Italian ryegrass (Lolium multiflorum); details: foliage application, 320 g/ha, evaluated three weeks after application
Summary of the method: as §3

velvetleaf [19] = assay: Test Example 5: herbicidal effect by foliage application, plastic box (Table 20, symbol M); type: in vivo, velvetleaf (Abutilon theophrasti); details: foliage application, 320 g/ha, evaluated three weeks after application
Summary of the method: as §3

redroot pigweed [20] = assay: Test Example 5: herbicidal effect by foliage application, plastic box (Table 20, symbol N); type: in vivo, redroot pigweed (Amaranthus retroflexus); details: foliage application, 320 g/ha, evaluated three weeks after application
Summary of the method: as §3

lambsquarters [21] = assay: Test Example 5: herbicidal effect by foliage application, plastic box (Table 20, symbol O); type: in vivo, lambsquarters (Chenopodium album); details: foliage application, 320 g/ha, evaluated three weeks after application
Summary of the method: as §3

chickweed [22] = assay: Test Example 5: herbicidal effect by foliage application, plastic box (Table 20, symbol P); type: in vivo, common chickweed (Stellaria media); details: foliage application, 320 g/ha, evaluated three weeks after application
Summary of the method: as §3

persian speedwell [23] = assay: Test Example 5: herbicidal effect by foliage application, plastic box (Table 20, symbol R); type: in vivo, Persian speedwell (Veronica persica); details: foliage application, 320 g/ha, evaluated three weeks after application
Summary of the method: as §3

Compound: COc1cccc(-c2sc3ccc(F)cc3c2-c2c(O)c(C)nn(C)c2=O)c1 [2-209]
- herbicidal effect on H: barnyard grass (barnyard grass [1]): 5 (Herbicidal rate of 90% or more (almost completely withered))
- herbicidal effect on D: Chinese sprangletop (Chinese sprangletop): 4 (Herbicidal rate of 70% or more and less than 90%)
- herbicidal effect on E: rice flat sedge (rice flat sedge): 5 (Herbicidal rate of 90% or more (almost completely withered))
- F: southern crabgrass, herbicidal effect rating (southern crabgrass [2]): 5 (Herbicidal rate of 90% or more (almost completely withered))
- G: green foxtail, herbicidal effect rating (green foxtail [3]): 5 (Herbicidal rate of 90% or more (almost completely withered))
- H: barnyard grass, herbicidal effect rating (barnyard grass [4]): 4 (Herbicidal rate of 70% or more and less than 90%)
- I: wild oat, herbicidal effect rating (wild oat [5]): 0 (Herbicidal rate of 5% or less (almost no effect))
- J: blackgrass, herbicidal effect rating (blackgrass [6]): 0 (Herbicidal rate of 5% or less (almost no effect))
- K: Italian ryegrass, herbicidal effect rating (Italian ryegrass [7]): 2 (Herbicidal rate of 20% or more and less than 40%)
- L: windgrass, herbicidal effect rating (windgrass): 0 (Herbicidal rate of 5% or less (almost no effect))
- M: velvetleaf, herbicidal effect rating (velvetleaf [8]): 2 (Herbicidal rate of 20% or more and less than 40%)
- N: redroot pigweed, herbicidal effect rating (redroot pigweed [9]): 4 (Herbicidal rate of 70% or more and less than 90%)
- O: lambsquarters, herbicidal effect rating (lambsquarters [10]): 5 (Herbicidal rate of 90% or more (almost completely withered))
- P: chickweed, herbicidal effect rating (chickweed [11]): 4 (Herbicidal rate of 70% or more and less than 90%)
- R: persian speedwell, herbicidal effect rating (persian speedwell [12]): 1 (Herbicidal rate of 5% or more and less than 20%)
- herbicidal effect on F: southern crabgrass (criteria 0-5) (southern crabgrass [13]): 5 (Herbicidal rate of 90% or more (almost completely withered))
- herbicidal effect on G: green foxtail (criteria 0-5) (green foxtail [14]): 5 (Herbicidal rate of 90% or more (almost completely withered))
- herbicidal effect on H: barnyard grass (criteria 0-5) (barnyard grass [15]): 5 (Herbicidal rate of 90% or more (almost completely withered))
- herbicidal effect on I: wild oat (criteria 0-5) (wild oat [16]): 0 (Herbicidal rate of 5% or less (almost no effect))
- herbicidal effect on J: blackgrass (criteria 0-5) (blackgrass [17]): 4 (Herbicidal rate of 70% or more and less than 90%)
- herbicidal effect on K: Italian ryegrass (criteria 0-5) (Italian ryegrass [18]): 4 (Herbicidal rate of 70% or more and less than 90%)
- herbicidal effect on M: velvetleaf (criteria 0-5) (velvetleaf [19]): 4 (Herbicidal rate of 70% or more and less than 90%)
- herbicidal effect on N: redroot pigweed (criteria 0-5) (redroot pigweed [20]): 5 (Herbicidal rate of 90% or more (almost completely withered))
- herbicidal effect on O: lambsquarters (criteria 0-5) (lambsquarters [21]): 4 (Herbicidal rate of 70% or more and less than 90%)
- herbicidal effect on P: chickweed (criteria 0-5) (chickweed [22]): 5 (Herbicidal rate of 90% or more (almost completely withered))
- herbicidal effect on R: persian speedwell (criteria 0-5) (persian speedwell [23]): 5 (Herbicidal rate of 90% or more (almost completely withered))
